These compounds were tested against T1, γ-secretase (Homo sapiens, UniProt P49768) (assay: Cell-Based γ-Secretase Assay (inhibition of Aβ(1-42) production, Meso Scale detection)). Conditions: Human SH-SY5Y neuroblastoma cells overexpressing SPA4CT; overnight incubation; Aβ(42) in media.
T1 construct: Human SH-SY5Y neuroblastoma cells overexpressing the direct β-secretase substrate SPA4CT; endogenous in cells; host or cells: human SH-SY5Y neuroblastoma cells (stably overexpressing the substrate SPA4CT, induced with sodium butyrate)
Method: Cell-Based γ-Secretase Assay
Human SH-SY5Y neuroblastoma cells overexpressing the direct β-secretase substrate SPA4CT were induced with sodium butyrate (10 mM) for 4 hours prior to plating. Cells were plated at 35,000 cells/well/100 μl in 96-well plates in phenol red-free MEM/10% FBS, 50 mM HEPES, 1% Glutamine and incubated for 2 hrs at 37° C., 5% CO2.
Compounds for testing were diluted into Me2SO to give a ten point dose-response curve. Typically 10 μl of these diluted compounds in Me2SO were further diluted into 182 μl dilution buffer (phenol red-free MEM/10% FBS, 50 mM HEPES, 1% Glutamine) and 10 μl of each dilution was added to the cells in 96-well plates (yielding a final Me2SO concentration of 0.5%). Appropriate vehicle and inhibitor controls were used to determine the window of the assay.
After incubation overnight at 37° C., 5% CO2, 25 μl and 50 μl media were transferred into a standard Meso avidin-coated 96-well plate for detection of Aβ(40) and Aβ(42) peptides, respectively. 25 μl Meso Assay buffer (PBS, 2% BSA, 0.2% Tween-20) was added to the Aβ(40) wells followed by the addition of 25 μl of the respective antibody premixes to the wells:
Aβ(40) premix: 1 μg/ml ruthenylated G2-10 antibody, 4 μg/ml biotinylated 4G8 antibody diluted in Origen buffer
Aβ(42) premix: 1 μg/ml ruthenylated G2-11 antibody, 4 μg/ml biotinylated 4G8 antibody diluted in Origen buffer
(Biotinylated 4G8 antibody supplied by Signet Pathology Ltd; G2-10 and G2-11 antibodies supplied by Chemicon)
After overnight incubation of the assay plates on a shaker at 4° C., the Meso Scale Sector 6000 Imager was calibrated according to the manufacturer's instructions. After washing the plates 3 times with 150 μl of PBS per well, 150 μl Meso Scale Discovery read buffer was added to each well and the plates were read on the Sector 6000 Imager according to the manufacturer's instructions.
LD50 and IC50 values for inhibition of Aβ(40) and Aβ(42) were calculated by nonlinear regression fit analysis using the appropriate software (eg. Excel fit). The total signal and the background were defined by the corresponding Me2SO and inhibitor controls.
For `Cc1ccc(C(C)(C)C)cc1Nc1ccnc(N2CCC(Cc3ccncc3)CC2)n1` [Example 4], the IC50 was 500 to 1500 nM. In the case of `COc1cnc(N2CCC(Cc3ccncc3)CC2)nc1Nc1cc(N(C)C)ccc1C` [Example 6], the IC50 is reported as 1500 to 3000 nM. For `Cc1cc(C)c(N(C)C)cc1Nc1ccnc(N2CCC(Cc3ccncc3)CC2)n1` [Example 10], the IC50 was 1500 to 3000 nM. `CCOc1cc(C)c(Nc2nc(N3CCC(Cc4ccncc4)CC3)ncc2Cl)cc1C(C)C` [Example 11] showed an IC50 of 500 to 1500 nM. `Cc1ccc(OC(C)C)cc1Nc1ccnc(N2CCC(Cc3ccncc3)CC2)n1` [Example 12] showed an IC50 of 500 to 1500 nM. For `COC(=O)c1cc(Nc2cc(C(C)(C)C)ccc2C)nc(N2CCC(Cc3ccncc3)CC2)n1` [Example 18], the IC50 was 500 to 1500 nM. In the case of `Cc1ccc(C(C)(C)C)cc1Nc1nc(N2CCC(Cc3ccncc3)CC2)ncc1F` [Example 22], the IC50 is reported as 1500 to 3000 nM.
